Measurements reported in patent publication US6300350A, “Treatment of emphysema using RARy selective retinoid agonists” (priority 2000, dated 2001).

Experiments:
RARβ [1] = biological target: T1, RARβ (Homo sapiens, UniProt P10826); test: Binding, RARβ (ligand binding assay); conditions: Table II
T1 sequence (P10826 1-455): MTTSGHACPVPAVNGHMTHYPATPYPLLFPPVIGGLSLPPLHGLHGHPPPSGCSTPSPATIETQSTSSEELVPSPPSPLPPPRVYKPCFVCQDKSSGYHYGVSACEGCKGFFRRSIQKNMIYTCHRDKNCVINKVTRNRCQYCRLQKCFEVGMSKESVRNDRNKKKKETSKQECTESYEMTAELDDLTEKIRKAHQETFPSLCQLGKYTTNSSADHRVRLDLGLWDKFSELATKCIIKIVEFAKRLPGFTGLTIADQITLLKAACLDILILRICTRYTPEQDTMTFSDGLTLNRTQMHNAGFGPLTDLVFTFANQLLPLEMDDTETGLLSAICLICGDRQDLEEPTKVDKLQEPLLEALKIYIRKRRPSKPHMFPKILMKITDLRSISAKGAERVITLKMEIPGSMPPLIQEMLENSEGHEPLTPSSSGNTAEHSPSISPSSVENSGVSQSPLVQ
Description: (§1) The RARγ agonist selectivity of a compound can be determined by routine ligand binding assays known to one of skill in the art such as described in C. Apfel et al., Proc. Nat.

RARγ [2] = biological target: T2, RARγ (Homo sapiens, UniProt P13631); test: Binding, RARγ (ligand binding assay)
T2 sequence (P13631 1-454): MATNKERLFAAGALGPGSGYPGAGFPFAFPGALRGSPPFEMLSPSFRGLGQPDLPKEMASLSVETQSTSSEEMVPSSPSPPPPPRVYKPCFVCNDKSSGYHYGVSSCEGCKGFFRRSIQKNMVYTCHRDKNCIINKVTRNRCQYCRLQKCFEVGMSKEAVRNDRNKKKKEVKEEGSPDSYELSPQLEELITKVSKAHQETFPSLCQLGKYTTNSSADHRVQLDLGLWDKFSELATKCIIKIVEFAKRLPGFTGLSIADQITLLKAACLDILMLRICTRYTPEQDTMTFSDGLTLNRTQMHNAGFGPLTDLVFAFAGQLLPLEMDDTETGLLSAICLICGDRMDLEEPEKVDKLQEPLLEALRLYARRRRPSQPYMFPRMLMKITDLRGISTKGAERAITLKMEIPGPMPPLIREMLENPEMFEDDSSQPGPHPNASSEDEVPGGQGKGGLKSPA
Description: as §1

RARα = biological target: T3, RARα (Homo sapiens, UniProt P10276); test: Transactivation, RARα; type: cell-based; conditions: Table II
T3 sequence (P10276 1-462): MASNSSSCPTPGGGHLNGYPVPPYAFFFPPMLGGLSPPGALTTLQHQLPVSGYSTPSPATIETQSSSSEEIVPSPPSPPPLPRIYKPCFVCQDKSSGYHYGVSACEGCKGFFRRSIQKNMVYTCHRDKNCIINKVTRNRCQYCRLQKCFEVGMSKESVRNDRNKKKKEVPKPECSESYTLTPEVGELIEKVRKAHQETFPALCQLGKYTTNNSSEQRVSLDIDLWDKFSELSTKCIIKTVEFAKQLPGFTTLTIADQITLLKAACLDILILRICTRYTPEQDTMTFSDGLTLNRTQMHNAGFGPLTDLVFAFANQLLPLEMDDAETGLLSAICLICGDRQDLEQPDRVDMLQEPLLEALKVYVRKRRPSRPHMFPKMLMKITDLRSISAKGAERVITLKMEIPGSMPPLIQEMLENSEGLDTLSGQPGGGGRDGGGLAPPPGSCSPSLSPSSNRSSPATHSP
Description: (§2) As used herein, the term "transactivation" refers to the ability of a retinoid to activate the transcription of a gene where the gene transcription is initiated by the binding of a ligand to the particular retinoic acid receptor being tested, i.e., RARα, RARβ, or RARγ. Determining the ability of a compound to transactivate a retinoic acid receptor may be performed by methods known to those of skill in the art. […] Apfel etal., Proc. Nat.

elastase damaged rats = test: Pulmonary gas exchange in elastase damaged rats; type: in vivo
Method: Pulmonary and arterial blood gases were determined in elastase damaged rats±retinoid treatment prior to termination of study. Rats were placed under deep anesthesia using pentobarbital (50 mg/kg, i.p. and a tracheal cannula (PE 240) was inserted. The rats were artificially ventilated (f=90, TV=approx 0.5 ml/100 g BW) using a small animal respiratory pump (Harvard). For each rat, the pump parameters were adjusted to establish an arterial CO2 level for the pulmonary artery (PCO2) of 30-35 torr. Arterial blood samples (approx 0.2 ml) were taken from the abdominal aorta (AO2) and immediately analyzed by pHOx blood gas. Data are presented as percent (%) recovery relative to elastase +vehicle treated rats.

tropoelastin gene = test: RAR transactivation of steady state tropoelastin gene in normal human lung fibroblasts (CCD-16Lu); type: cell-based
Method: Transactivation of the tropoelastin gene in normal human lung fibroblasts (CCD-16Lu) was performed as described below. Cells were grown to confluence at which time fresh media +/- ATRA or selective retiniod was added to the basal culture. ATRA and/or selective retiniods were used at a concentration of 1×10^-7 M. The cell layer was lysed using a guanidinium-based buffer (TRIZOL/Sigma) for RNA extraction and analysis. Amplification of tropoelastin and GAPDH RNA was performed by standard quantitative RT-PCR (TAQMAN, Perken/Elmer) using appropriate selective primers. Tropo-elastin gene expression was normalized to the expression of standard house-keeping gene (GAPDH).
Samples were run in triplicate.

RARγ [3] = biological target: T2, RARγ; test: Transactivation, RARγ; type: cell-based
Description: as §2

[4] = Plasma triglyceride levels in rats; type: in vivo; conditions: plasma, 1 mg/kg/PO daily for two weeks
Method: Experimental emphysema was induced in rats as described in Example 2. Three (3) weeks post injury animals were treated with vehicle (Capmul solution) or retinoids prepared in Capmul and dosed orally at 1, 3, and 10 mg/kg body weight. Animals were treated for 14 days prior to termination of study. Lung harvest and blood collection was performed as described in Example 2.
Quantitation of triglycerides contained in rat plasma was performed after using established procedures in a contact clinical laboratory facility. Briefly, plasma triglycerides were converted to dihdroxyacetone and H2 O2, by sequential treatment of plasma with lipase and glycerokinase according directions described by manufacturer of triglycerides/GPO kit (Boehringer Mannheim #1488872). H2 02 was quantitated calorimetrically in a Hitachi 911 Chemistry Analyzer. In rats normal triglyceride levels are 75-175 mg/dl.
Dosage was at 1 mg/kg/PO daily for two weeks. […] Therefore, it appears that RARα selective activity is linked to elevated triglyceride levels.

RARβ [5] = biological target: T1, RARβ; test: Transactivation, RARβ; type: cell-based; conditions: Table II
Description: as §2

## CCCCCCc1cc2c(cc1/C=C/c1ccc(C(=O)O)cc1)C(C)(C)CCC2(C)C [RAR Agonist 3]
RARβ [1]
  IC50: 3000 nM
RARγ [2]; Table II
  IC50: 210 nM
RARγ [2]; Table III
  IC50: 210 nM
RARα
  EC50: 1000 nM
Elastase damaged rats; 0.01 mg/kg
  PCO2, recovery relative to elastase + vehicle treated rats: 84.6%
  PO2, recovery relative to elastase + vehicle treated rats: 49.8%
Elastase damaged rats; abdominal aorta, 0.01 mg/kg
  AO2, recovery relative to elastase + vehicle treated rats: 100%
Elastase damaged rats; elastase-damaged rats
  gas exchange (in words): more effective and more potent than the pan agonist (ATRA)
Tropoelastin gene; CCD-16Lu, 1×10^-7 M, RT-PCR, triplicate, untreated control 30.90
  Tropo-elastin Expression: 68.58 (Elastin/GAPDH) × 10^5
Tropoelastin gene; human lung fibroblasts, compared to the control
  tropoelastin gene induction (in words): markedly induces tropoelastin gene induction
RARγ [3]; Table II
  EC50: 15 nM
RARγ [3]; Table III
  EC50: 15 nM
[4]
  triglyceride levels (in words): do not cause elevation in the triglyceride levels
[4]; normal rat 75-175 mg/dl
  [Triglyceride]: 92 mg/dL
RARβ [5]
  EC50: 88 nM
